# From patent US6660298B1, “Paroxetine tablets and capsules” (priority 2000, dated 2003)
# Counter-ions that a name gives are not always drawn.
# How the values were obtained:
# Format in all cases: physicochemical
# [1] = Solubilization enhancement with PVP K-30 and citric acid (Preparation C)
# Experimental: Approximately 1.0, 1.5, 1.6, 2.5 and 3.0 grams of amorphous paroxetine HCl were weighed into five 25-ml volumetric flasks. Ten milliliters of an ethanol-water (20% v/v ethanol) mixture containing 0.25 grams of polyvinyl pyrrolidone (PVP) K-30 and 0.02 grams of citric acid anhydrous were added into each of the five flasks and the flasks were sonicated for 30 minutes. Only the solution in flask 1 became clear while only part of the paroxetine HCl in flasks 2 through 5 dissolved.
# [2] = Solubility in aqueous alcohol (Preparation B)
# Experimental: A. Exactly two milliliters of ethanol were added to each of the nine flasks from Preparation A and the flasks shaken gently by hand. […] B. Approximately 250, 320, 400, 570 and 1120 mg of amorphous paroxetine HCl were weighed into five 25-ml volumetric flasks labeled 1 through 5 respectively. Ten milliliters of ethanol-water mixture containing 20% v/v ethanol were pipetted into each of the flasks and the flasks were stoppered. The flasks were then placed in a sonicator (Branson 1210, Danbury, Conn.) and sonicated for ten minutes taking care to see that there was no heating.
# [3] = Determination of solubility in deionized water (Preparation A); details: room temperature, sonicated 10 min, still clear after 24 hours
# Experimental: Approximately 45, 100, 200, 300, 400, 500, 510, 750 and 1000 mg of amorphous paroxetine HCl were weighed into nine 25-ml volumetric flasks labeled 1 through 9 respectively. Ten milliliters of deionized water were pipetted into each of the flasks and the flasks were stoppered. The flasks were then placed in a sonicator (Branson 1210, Danbury, Conn.) and sonicated for ten minutes taking care to see that there was no heating.
SMILES,"solubility at 30 min ([1]; 60 °C, aqueous with cosolvent or surfactant or cyclodextrin, thermodynamic from solid) [mg/mL]","appearance of solution upon heating ([1]; 1.0-3.0 g in 10 ml 20% v/v ethanol with 0.25 g PVP K-30 and 0.02 g citric acid, heated to about 60° C.)","appearance of solution ([1]; 1.0 g in 10 ml 20% v/v ethanol with 0.25 g PVP K-30 and 0.02 g citric acid, sonicated 30 min (flask 1))","extent of dissolution ([1]; 1.5, 1.6, 2.5, 3.0 g in 10 ml 20% v/v ethanol with 0.25 g PVP K-30 and 0.02 g citric acid, sonicated 30 min (flasks 2-5))","appearance of solution ([2]; 1120 mg in 10 ml ethanol-water 20% v/v ethanol, sonicated 10 min (flask 5))","appearance of solution ([2]; 250, 320, 400, 570 mg in 10 ml ethanol-water 20% v/v ethanol, sonicated 10 min (flasks 1-4))",amount that could be dissolved in hydroalcoholic solvent mixture ([2]; about 15% ethanol (10 ml water + 2 ml ethanol)),maximum solubility ([3]; HCl),maximum solubility ([3]; listed as amorphous form of paroxetine HCl)
Fc1ccc([C@@H]2CCNC[C@H]2COc2ccc3c(c2)OCO3)cc1 [Paroxetine HCl],> 300,,,,,,,,
Cl.Fc1ccc([C@@H]2CCNC[C@H]2COc2ccc3c(c2)OCO3)cc1 [amorphous paroxetine HCl],,all the solutions became clear,became clear,only part,clear solution with a slight precipitate,clear solutions,at least 1 gram,about 75 mg/ml,up to 75 mg/ml
